Source: patent publication US20230357320A1, “HELICAL STAPLED PEPTIDES AND USES THEREOF” (FOG PHARMACEUTICALS, INC., priority 2020, published 2023)
Where two headings read alike, the source gives them in different places. Starred links: 1 amine or outer side, 2 acyl side, 3 side chain; linkers in the order of their positions; H or OH if unused. Positions of bridges follow the written chain, without caps; N, C: chain ends. Non-standard residues stand in square brackets, D forms with d. Residues, ends and D or L forms follow the SMILES beside them. X1 = O=C([C@]1(CC=[*:3])CCCN1[*:1])[*:2]; Ala(cPr) = N[C@@H](CC1CC1)C(=O)O; S5 = C=CCCC[C@](C)(N)C(=O)O; Nle = CCCC[C@H](N)C(=O)O

How the values were obtained:
[1] = CHI Log D measurement (chromatographic hydrophobicity index); conditions: pH 7.4
in vitro = assay: in vitro; set-up: dose or concentration left out as unconfirmed; conditions: PAMPA, pH 7.4, PAMPA Pe
Experimental: (§1) The synthesized peptides were first analyzed with a PAMPA assay. […] The PAMPA plate system is composed of two compartments, donor and acceptor, which are separated by a phospholipid-infused membrane. The amount of compound transferred from the acceptor well into the donor well over a period of incubation time is used to determine the passive permeability of a compound.
(§2) The two plates are separated by a membrane infused with phospholipids. […] The amount of compound transferred from one well to the other is usually quantified by reverse-phase HPLC-mass spectrometry.
(§3) Briefly, all PAMPA assays were performed using the commercially available PAMPA plate system from Corning, which uses a proprietary membrane composed of structured phospholipids. […] To prevent nonspecific peptide loss to the plates, the acceptor wells of the Corning PAMPA plates were blocked overnight with 5% nonfat milk with 0.1% Triton X-100 in Dulbecco's phosphate buffer saline (DPBS) at pH=7.4, followed by extensive washing prior to assays. The donor wells and membrane itself were not exposed to the milk/Triton solution. […] The PAMPA experiments described herein were performed using plates from Corning Lot #9112010, Lot #9112011 and Lot #7317005 (Corning Inc., Corning, New York, USA).
(§4) To set up PAMPA assays, the PAMPA plate system was equilibrated at room temperature for at least an hour before setting up the assay. The acceptor plate preincubated with milk blocking solution was washed with water, followed by DPBS buffer. 300 μL of 5% DMSO in DPBS at pH=7.4 was added to the pre-blocked acceptor plate, and 200 μL of 10M compounds made with 5% DMSO in DPBS at pH=7.4 was added to the donor plate. The donor plate with a lid was then carefully inserted into the acceptor plate with no bubbles formed at the interface of donor and acceptor plates. The PAMPA assay plate was covered with aluminum foil and placed in a 37° C. incubator for 5 hours. 10 M input solution of all compounds was diluted 20-fold to a final acetonitrile concentration of 50% before analyzing by reverse-phase HPLC and Q-Exactive plus mass spectrometer. At the end of 5 hours, PAMPA donor and acceptor plates were separated and diluted 20-fold and 2-fold respectively to a final acetonitrile concentration of 50%. The diluted solutions of PAMPA donor and acceptor plates were analyzed by reverse-phase HPLC and Q-Exactive plus mass spectrometer.
(§5) Pe measures the passive permeability of each compound tested in the PAMPA assay, whereas % retention measures the amount of compound retained in solution at the end of the assay compared to the input sample.

[2] = for % Retention: PAMPA
Experimental: as §1, §2, §3, §4, §5

ERβ LBD = molecular target: T1, ERβ LBD (Homo sapiens, UniProt Q92731); assay: Competition fluorescence polarization (FP) binding assay with FITC-ERL4 probe; conditions: read-out: EC50
T1 construct: pET28a+ vector containing ERβ LBD (residues from 261 to 500) along with an N-terminal His6-yBBr-TEV tag; His6 (N); yBBr (N); TEV cleavage site (N); made in house; host or cells: E. coli BL21(DE3) pLysS
Experimental: In addition to the PAMPA assay, to study the affinity of the first-generation ProLock™ stapled peptides to the Estrogen receptor p ligand-binding domain (ERβ LBD), a fluorescence polarization (FP) binding assay in competition format was used in the presence of the endogenous ERβ LBD ligand estradiol. Competition Fluorescence Polarization (FP) assay was performed on the peptides to determine their half-maximal effective concentration (EC50). To do this, FITC labeled ERL4 peptide (FITC-βAla-His-Pro-Leu-Leu-Nle-Arg-Leu-Leu-Leu-Ser-Pro-CONH2) was synthesized to be used as a fluorescence probe based on existing literature (Fuchs et al., Journal of the American Chemical Society 2013, 135 (11), 4364-4371). Direct FP was performed in black 384-well plates (Corning). The final volume of each assay well was 40 μL with constant concentration of FITC labeled ERL4 peptide (10 nM) and variable concentrations of ERβ LBD protein.
ERβ LBD expression and purification was performed as follows. BL21(DE3) pLysS E. coli cells were transformed with a pET28a+ vector containing ERβ LBD (residues from 261 to 500) along with an N-terminal His6-yBBr-TEV tag. An overnight culture in 10 mL of TB media containing 50 μg/mL kanamycin was prepared from a single bacterial colony. The overnight culture was subsequently added to 1 liter of autoclaved TB media containing 50 μg/mL kanamycin and shaken at 37° C. until an OD of 0.6-0.8 was reached. IPTG was added to the culture and left shaking for 6 hours. Bacterial culture was pelleted and resuspended in lysis buffer. Resuspended bacterial culture was incubated at 0° C. for 10 minutes before sonication at 65% amplitude with 10-sec cycles using a Branson Sonifier. The lysate was then cleared by centrifugation at 8000×g for 20 min. […] The expected molecular weight of the ERβ LBD protein is 30.8 KDa, which molecular weight was confirmed by SDS PAGE analysis. Purified ERβ LBD was concentrated to 90 μM and was stored at −80° C. buffer.
Competition FP assays were also employed. These were performed in black 384-well plates (Corning). The final volume of each assay well was 80 μL containing constant concentrations of estradiol (1 μM) and FITC labeled ERL4 (10 nM). The ERβ LBD concentration was held constant (200 nM) while varying the concentration of ProLock stapled peptides (3-fold dilution from 10 μM). Upon addition of samples to each well, the plate was centrifuged for 10 seconds at 3000 rpm and incubated at 4° C. for 1 hour. FP measurements were performed at room temperature with excitation and emission wavelengths at 485 and 535 nm using a Clariostar microplate reader (BMG Labtech). Each plate had high and low polarization samples, which are used to normalize the assay data. The competition FP results were analyzed by Prism 7 (GraphPad). The non-linear regression analysis of the data was used to determine the half-maximal effective concentration (EC50) of ProLock stapled peptides. […] The normalized FP values shown in FIG. 6 are mean±S.E.M of at least four independent replicates.

[3] = Table 4, binding to ER LBD, estradiol 1 μM, FITC-ERL4 10 nM, ERβ LBD 200 nM, mean ± S.E.M, at least four replicates
[4] = Table 2, binding to ER LBD, estradiol 1 μM, FITC-ERL4 10 nM, ERβ LBD 200 nM, mean ± S.E.M, at least four replicates
[5] = reverse-phase HPLC, Phenomenex Gemini C-18 column
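For % Retention in this document: Phospholipid-membrane PAMPA, donor and acceptor in DPBS pH 7.4 with 5% DMSO, 37 °C for 5 h, compound in each well quantified by reverse-phase HPLC-MS.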
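For PAMPA Pe (text) in this document: Phospholipid-membrane PAMPA, donor and acceptor in DPBS pH 7.4 with 5% DMSO, 37 °C for 5 h, compound in each well quantified by reverse-phase HPLC-MS.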
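For PAMPA Pe in this document: Phospholipid-membrane PAMPA, donor and acceptor in DPBS pH 7.4 with 5% DMSO, 37 °C for 5 h, compound in each well quantified by reverse-phase HPLC-MS.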
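For Papp in this document: Phospholipid-membrane PAMPA, donor and acceptor in DPBS pH 7.4 with 5% DMSO, 37 °C for 5 h, compound in each well quantified by reverse-phase HPLC-MS.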

| SMILES | chromatographic logD [1] | Papp at 5 h (in vitro) | % Retention [2] | EC50 (ERβ LBD; [3]) | PAMPA Pe (text) [2] | EC50 (ERβ LBD; [4]) | chromatographic logD [1, 5] | PAMPA Pe [2] | EC50 (ERβ LBD; binding towards the ERβ LBD) |
| --- | --- | --- | --- | --- | --- | --- | --- | --- | --- |
| CNC(=O)[C@H](CC(=O)O)NC(=O)[C@H](CCC(N)=O)NC(=O)[C@H](CC(C)C)NC(=O)[C@H](CC(C)C)NC(=O)[C@H](Cc1ccc(O)cc1)NC(=O)[C@]1(C)CCCC=CC[C@]2(CCCN2C(C)=O)C(=O)N[C@@H](C)C(=O)N[C@@H](CC(C)C)C(=O)N1 (single isomer, unassigned) [PLL7-8, Ac-PL3-Ala-Leu-S5-Tyr-Leu-Leu-Gln-Asp-NHMe] | 1.7 | 1.4 ± 0.3 ×10⁻⁶ cm/s | 107 ± 3% | > 10 µM | – | – | – | – | – |
| CNC(=O)[C@H](Cc1ccc(O)cc1)NC(=O)[C@H](CCC(N)=O)NC(=O)[C@H](CC(C)C)NC(=O)[C@H](CC(C)C)NC(=O)[C@]1(C)CCCC=CC[C@]2(CCCN2C(C)=O)C(=O)N[C@@H](CC(C)C)C(=O)N[C@@H](Cc2c[nH]cn2)C(=O)N1 (single isomer, unassigned) [PLL4-7, Ac-PL3-Leu-His-S5-Leu-Leu-Gln-Tyr-NHMe] | 2.5 | 0.3 ± 0.1 ×10⁻⁶ cm/s | 46 ± 3% | – | 0.3-0.7 ×10^−6 cm/sec | > 10 µM | – | – | – |
| CNC(=O)[C@H](CC(=O)O)NC(=O)[C@H](CC(C)C)NC(=O)[C@H](CC(C)C)NC(=O)[C@H](Cc1ccc(O)cc1)NC(=O)[C@]1(C)CCCC=CC[C@]2(CCCN2C(C)=O)C(=O)N[C@@H](CC(C)C)C(=O)N[C@@H](CC(C)C)C(=O)N1 [PLL4-10, Ac-PL3-Leu-Leu-S5-Tyr-Leu-Leu-Asp-NHMe] (Ac-[X1]LL[S5]YLLD-NHMe; staple 1-4) | – | 0.6 ± 0.1 ×10⁻⁶ cm/s | 63 ± 4% | – | 0.3-0.7 ×10^−6 cm/sec | – | 2.4 | 0.6 ± 0.1 (×10^−6) cm/sec | 1.5 µM |
| CNC(=O)[C@H](Cc1c[nH]cn1)NC(=O)[C@H](CC(C)C)NC(=O)[C@H](CC(C)C)NC(=O)[C@H](Cc1ccc(O)cc1)NC(=O)[C@]1(C)CCCC=CC[C@]2(CCCN2C(C)=O)C(=O)N[C@@H](CC(C)C)C(=O)N[C@@H](CC(C)C)C(=O)N1 (single isomer, unassigned) [PLL5-11, Ac-PL3-Leu-Leu-S5-Tyr-Leu-Leu-His-NHMe] | 3.2 | ≤ 0.1 ×10⁻⁶ cm/s | 89 ± 1% | > 10 µM | – | – | – | – | – |
| CNC(=O)[C@H](CC(=O)O)NC(=O)[C@H](CC(=O)O)NC(=O)[C@H](CC(C)C)NC(=O)[C@H](CC(C)C)NC(=O)[C@H](Cc1ccc(O)cc1)NC(=O)[C@]1(C)CCCC=CC[C@]2(CCCN2C(C)=O)C(=O)N[C@@H](CC(C)C)C(=O)N[C@@H](CC(C)C)C(=O)N1 [PLL5-2, Ac-PL3-Leu-Leu-S5-Tyr-Leu-Leu-Asp-Asp-NHMe] (Ac-[X1]LL[S5]YLLDD-NHMe; staple 1-4) | – | 1.6 ± 0.1 ×10⁻⁶ cm/s | 97 ± 2% | – | – | – | 1.7 | 1.6 ± 0.1 (×10^−6) cm/sec | 0.8 to 1.3 µM |
| CNC(=O)[C@H](CC(=O)O)NC(=O)[C@H](CC(C)C)NC(=O)[C@H](CC(C)C)NC(=O)[C@H](Cc1ccc(O)cc1)NC(=O)[C@]1(C)CCCC=CC[C@]2(CCCN2C(C)=O)C(=O)N[C@@H](CCCCN)C(=O)N[C@@H](CC(C)C)C(=O)N1 (single isomer, unassigned) [PLL5-6, Ac-PL3-Lys-Leu-S5-Tyr-Leu-Leu-Asp-NHMe] | 1.2 | 1.5 ± 0.2 ×10⁻⁶ cm/s | 105 ± 5% | > 10 µM | – | – | – | – | – |
| CNC(=O)[C@H](CC(=O)O)NC(=O)[C@H](CCC(N)=O)NC(=O)[C@H](CC(C)C)NC(=O)[C@H](CC(C)C)NC(=O)[C@H](Cc1ccc(O)cc1)NC(=O)[C@]1(C)CCCC=CC[C@]2(CCCN2C(C)=O)C(=O)N[C@@H](CC2CC2)C(=O)N[C@@H](CC(C)C)C(=O)N1 [PLL7-7, Ac-PL3-Cpa-Leu-S5-Tyr-Leu-Leu-Gln-Asp-NHMe] (Ac-[X1][Ala(cPr)]L[S5]YLLQD-NHMe; staple 1-4) | – | 1 ± 0.1 ×10⁻⁶ cm/s | 108 ± 3% | 0.9 ± 0.1 µM | exceeding 1 ×10^−6 cm/sec | – | 2 | 1.0 ± 0.1 (×10^−6) cm/sec | 0.8 to 1.3 µM |
| CNC(=O)[C@H](CC(=O)O)NC(=O)[C@H](CCC(N)=O)NC(=O)[C@H](CC(C)C)NC(=O)[C@H](CC(C)C)NC(=O)[C@H](CCCNC(=N)N)NC(=O)[C@]1(C)CCCC=CC[C@]2(CCCN2C(C)=O)C(=O)N[C@@H](CC2CC2)C(=O)N[C@@H](CC(C)C)C(=O)N1 [PLL7-5, Ac-PL3-Cpa-Leu-S5-Arg-Leu-Leu-Gln-Asp-NHMe] (Ac-[X1][Ala(cPr)]L[S5]RLLQD-NHMe; staple 1-4) | – | 0.8 ± 0.2 ×10⁻⁶ cm/s | 109 ± 2% | 4.1 ± 0.3 µM | – | – | 2 | – | – |
| CC[C@H](C)[C@@H]1NC(=O)[C@]2(CC=CCCC[C@@](C)(C(=O)N[C@@H](Cc3ccc(O)cc3)C(=O)N[C@@H](CC(C)C)C(=O)N[C@@H](CC(C)C)C(=O)N[C@@H](CC(=O)O)C(=O)NC)NC(=O)[C@H](CC(C)C)NC1=O)CCCN2C(C)=O [PLL5-4, Ac-PL3-Ile-Leu-S5-Tyr-Leu-Leu-Asp-NHMe] (Ac-[X1]IL[S5]YLLD-NHMe; staple 1-4) | – | 0.3 ± 0.1 ×10⁻⁶ cm/s | 100 ± 1% | 1.3 ± 0.1 µM | – | – | 2.4 | – | – |
| CNC(=O)[C@H](CC(N)=O)NC(=O)[C@H](CC(C)C)NC(=O)[C@H](CC(C)C)NC(=O)[C@H](Cc1c[nH]cn1)NC(=O)[C@]1(C)CCCC=CC[C@]2(CCCN2C(C)=O)C(=O)N[C@@H](C)C(=O)N[C@@H](CC(C)C)C(=O)N1 (single isomer, unassigned) [PLL7-20, Ac-PL3-Ala-Leu-S5-His-Leu-Leu-Asn-NHMe] | 2.1 | 1.3 ± 0.1 ×10⁻⁶ cm/s | 104 ± 2% | > 10 µM | – | – | – | 1.3 ± 0.1 (×10^−6) cm/sec | – |
| CNC(=O)[C@H](Cc1ccc(O)cc1)NC(=O)[C@H](CC(C)C)NC(=O)[C@H](CC(C)C)NC(=O)[C@H](Cc1c[nH]cn1)NC(=O)[C@H](CCCNC(=N)N)NC(=O)[C@]1(C)CCCC=CC[C@]2(CCCN2C(C)=O)C(=O)N[C@@H](CC(C)C)C(=O)N[C@@H](CC(C)C)C(=O)N1 [PLL4-2, Ac-PL3-Leu-Leu-S5-Arg-His-Leu-Leu-Tyr-NHMe] (Ac-[X1]LL[S5]RHLLY-NHMe; staple 1-4) | – | ≤ 0.1 ×10⁻⁶ cm/s | 43 ± 2% | – | – | – | 2.7 | – | 0.4 µM |
| CCCC[C@H](NC(=O)[C@]1(C)CCCC=CC[C@]2(CCCN2C(C)=O)C(=O)N[C@@H](CC(C)C)C(=O)N[C@@H](CCCNC(=N)N)C(=O)N1)C(=O)N[C@@H](CC(C)C)C(=O)N[C@@H](C)C(=O)N[C@@H](Cc1ccc(O)cc1)C(=O)NC [PLL4-12, Ac-PL3-Leu-Arg-S5-Nle-Leu-Ala-Tyr-NHMe] (Ac-[X1]LR[S5][Nle]LAY-NHMe; staple 1-4) | – | ≤ 0.1 ×10⁻⁶ cm/s | 42 ± 2% | – | – | 7.5 ± 0.4 µM | 2.7 | – | – |
